The subject of assay [1] is basal forebrain cultures. Nature of the assay: Basal Forebrain ChAT Activity Assay. The assay is classed as cell-based, rat. Conditions: day six. The protocol: Compounds of the invention were assessed for their ability to promote survival and increase in ChAT activity in basal forebrain cultures. ChAT activity in these cultures is a biochemical marker for the cholinergic neurons (less than 5% of the cells in culture), which represent the major cholinergic input to the hippocampal formation, olfactory nucleus, interpeduncular nucleus, cortex, amygdala, and parts of the thalamus. […] The basal forebrain was dissected from embryonic day 17 or 18 rat embryos and the cells were […] with Dispase™ (neutral protease, Collaborative Research). Neurons were plated at 5×10^4 cells/well (1.5×10^5 cells/cm^2) in wells of 96-well plates previously coated with […] and laminin. Cells were cultured in serum-free N2 medium containing 0.05% bovine serum albumin (BSA) (Bottenetein et al., supra) at 37° in a humidified atmosphere of 5% CO2/95% air. ChAT activity was measured in vitro at day six, using a modification of the Formum procedure (supra) according to McManaman et al. (supra) and Glicksman et al. (J. Neurochem. 61:210-221, 1993).
(§1) Compounds which increased ChAT activity at least 120% of the control activity are considered active.

The test system of assay [2] is dissociated spinal cord cultures. Description: Spinal Cord ChAT Activity Assay. In kind it is cell-based, rat. The protocol: The effect of selected ring substituted K-252a derivatives on CHAT activity was assayed in dissociated spinal cord cultures prepared from fetal rats using the procedure described in U.S. Pat. No. 5,461,146, Columns 26 and 27, Examples 6 and 7. ChAT is the enzyme that catalyzes the synthesis of the neurotransmitter acetylcholine, and it is a specific biochemical marker for cholinergic neurons. In the spinal cord, the large majority of cholinergic neurons are motor neurons. Assay of this enzyme may thus be used as an indication of the effects of a factor, or actors, on the survival of cholinergic neurons and/or regulation of this enzyme.
as §1

The subject of assay [3] is protein kinase C (PKC). Conditions: reported in the literature; cited from earlier work.
Where [4] appears, read: concentration not given, at least 120% of control = active.
Where [5] appears, read: concentration not given, tested between 10 nM and 500 nM, at least 120% of control = active.

Molecules are shown by their SMILES.

Consider `COCCC(=O)c1ccc2c(c1)c1c3c(c4c5cc(C(=O)CCOC)ccc5n5c4c1n2C1CC(O)(C(=O)OC)C5(C)O1)CNC3=O` (stereo not drawn) [Compound 54], for which the figures for the “ChAT Activity maximum efficacy % of Control (conc)” value (from here on “ChAT Activity maximum efficacy %”) in assay [1] (maximum efficacy at 250 nM) and in assay [2] (setting [4]) were 167 (250 nM) % of Control and <120 % of Control, respectively.

Consider `CCSCC(=O)c1ccc2c(c1)c1c3c(c4c5ccccc5n5c4c1n2C1(C)OC5CC1(O)C(=O)OC)C(=O)NC3` (stereo not drawn) [Compound 41], for which the entries for the “ChAT Activity maximum efficacy %” value in assay [1] (setting [5]) and in assay [2] (maximum efficacy at 300 nM) were <120 % of Control and 204 (300 nM) % of Control, respectively.

As to `CCC=Cc1ccc2c(c1)c1c3c(c4c5cc(C=CCC)ccc5n5c4c1n2C1CC(O)(C(=O)OC)C5(C)O1)CNC3=O` (stereo not drawn) [Compound 68], the “ChAT Activity maximum efficacy %” value is reported as 290 (250 nM) % of Control in assay [1] (maximum efficacy at 250 nM) and 291 (300 nM) % of Control in assay [2] (maximum efficacy at 300 nM).

Turning to `COC(=O)C1(O)CC2OC1(C)n1c3ccc(C(=O)CSc4nnnn4C)cc3c3c4c(c5c6cc(C(=O)CSc7nnnn7C)ccc6n2c5c31)C(=O)NC4` (stereo not drawn) [Compound 52], the “ChAT Activity maximum efficacy %” value in assay [1] (setting [5]) and in assay [2] (setting [4]) was <120 % of Control throughout.

Turning to `COC(=O)C1(O)CC2OC1(C)n1c3ccc(CCN=[N+]=[N-])cc3c3c4c(c5c6cc(CCN=[N+]=[N-])ccc6n2c5c31)C(=O)NC4` (stereo not drawn) [Compound 81], the entries for the “ChAT Activity maximum efficacy %” value in assay [1] (setting [5]) and in assay [2] (maximum efficacy at 300 nM) were <120 % of Control and 131 (300 nM) % of Control, respectively.

As for `CCOC(=O)C=Cc1ccc2c(c1)c1c3c(c4c5ccccc5n5c4c1n2C1(C)OC5CC1(O)C(=O)OC)C(=O)NC3` (stereo not drawn) [Compound 12], the results for the “ChAT Activity maximum efficacy %” value in assay [1] (maximum efficacy at 500 nM) and in assay [2] (maximum efficacy at 300 nM) were 184 (500 nM) % of Control and 269 (300 nM) % of Control, respectively.

For `COC(=O)C1(O)CC2OC1(C)n1c3ccc(C(O)CCCl)cc3c3c4c(c5c6cc(C(O)CCCl)ccc6n2c5c31)C(=O)NC4` (stereo not drawn) [Compound 59], the “ChAT Activity maximum efficacy %” value is given as 131 (250 nM) % of Control in assay [1] (maximum efficacy at 250 nM) and 160 (300 nM) % of Control in assay [2] (maximum efficacy at 300 nM).

For `COC(=O)C1(O)CC2OC1(C)n1c3ccc(C#CCN(C)Cc4ccccc4)cc3c3c4c(c5c6cc(Br)ccc6n2c5c31)C(=O)NC4` (stereo not drawn) [Compound 62], the results for the “ChAT Activity maximum efficacy %” value in assay [1] (maximum efficacy at 50 nM) and in assay [2] (maximum efficacy at 300 nM) were 202 (50 nM) % of Control and 235 (300 nM) % of Control, respectively.

As for `COC(=O)C1(O)CC2OC1(C)n1c3ccc(CCc4ccccn4)cc3c3c4c(c5c6ccccc6n2c5c31)C(=O)NC4` (stereo not drawn) [Compound 14], the “ChAT Activity maximum efficacy %” value is 229 (500 nM) % of Control in assay [1] (maximum efficacy at 500 nM) and 282 (300 nM) % of Control in assay [2] (maximum efficacy at 300 nM).

For the compound `CCSCCc1ccc2c(c1)c1c3c(c4c5cc(CCSCC)ccc5n5c4c1n2C1CC(O)(C(=O)OC)C5(C)O1)CNC3=O` (stereo not drawn) [Compound 88], the “ChAT Activity maximum efficacy %” value is <120 % of Control in assay [1] (setting [5]) and 190 (300 nM) % of Control in assay [2] (maximum efficacy at 300 nM).

With `COC(=O)C1(O)CC2OC1(C)n1c3ccc(CCO)cc3c3c4c(c5c6cc(CCO)ccc6n2c5c31)C(=O)NC4` (stereo not drawn) [Compound 70c], the “ChAT Activity maximum efficacy %” value in assay [1] (maximum efficacy at 250 nM) is given as 203 (250 nM) % of Control; in assay [2] (maximum efficacy at 300 nM) it was 186 (300 nM) % of Control.

Consider `COC(=O)C1(O)CC2OC1(C)n1c3ccc(CCSc4ccc(O)cc4)cc3c3c4c(c5c6cc(CCSc7ccc(O)cc7)ccc6n2c5c31)C(=O)NC4` (stereo not drawn) [Compound 91], for which the “ChAT Activity maximum efficacy %” value in assay [1] (setting [5]) and in assay [2] (setting [4]) was <120 % of Control throughout.

As to `COC(=O)C1(O)CC2OC1(C)n1c3ccc(CCOC(=O)c4ccncc4)cc3c3c4c(c5c6cc(CCOC(=O)c7ccncc7)ccc6n2c5c31)C(=O)NC4` (stereo not drawn) [Compound 71], the “ChAT Activity maximum efficacy %” value in assay [1] (maximum efficacy at 250 nM) is 152 (250 nM) % of Control; in assay [2] (maximum efficacy at 300 nM), 193 (300 nM) % of Control.

Regarding `COC(=O)C1(O)CC2OC1(C)n1c3ccc(CCSc4ccccn4)cc3c3c4c(c5c6cc(CCSc7ccccn7)ccc6n2c5c31)C(=O)NC4` (stereo not drawn) [Compound 94], the “ChAT Activity maximum efficacy %” value in assay [1] (maximum efficacy at 250 nM) is on record as 166 (250 nM) % of Control; in assay [2] (maximum efficacy at 300 nM), 152 (300 nM) % of Control.

In the case of `COC(=O)C1(O)CC2OC1(C)n1c3ccc(CCSC)cc3c3c4c(c5c6cc(CCSC)ccc6n2c5c31)C(=O)NC4` (stereo not drawn) [Compound 87], the “ChAT Activity maximum efficacy %” value in assay [1] (maximum efficacy at 250 nM) is listed as 262 (250 nM) % of Control; in assay [2] (maximum efficacy at 300 nM) it was 294 (300 nM) % of Control.

`CCOCOCc1ccc2c(c1)c1c3c(c4c5cc(COCOCC)ccc5n5c4c1n2C1CC(O)(C(=O)OC)C5(C)O1)CNC3=O` (stereo not drawn) [Compound 156]: in assay [2] (maximum efficacy at 300 nM), the “ChAT Activity maximum efficacy %” value is 217 (300 nM) % of Control.

On to `COC(=O)C1(O)CC2OC1(C)n1c3ccc(C=Cc4ccccn4)cc3c3c4c(c5c6ccccc6n2c5c31)C(=O)NC4` (stereo not drawn) [Compound 13], for which the entries for the “ChAT Activity maximum efficacy %” value in assay [1] (maximum efficacy at 100 nM) and in assay [2] (maximum efficacy at 30 nM) were 167 (100 nM) % of Control and 271 (30 nM) % of Control, respectively.

For the compound `COC(=O)C1(O)CC2OC1(C)n1c3ccccc3c3c4c(c5c6cc(C=Cc7ncc[nH]7)ccc6n2c5c31)C(=O)NC4` (stereo not drawn) [Compound 148], the “ChAT Activity maximum efficacy %” value in assay [2] (maximum efficacy at 300 nM) is on record as 206 (300 nM) % of Control.

In the case of `COC(=O)C1(O)CC2OC1(C)n1c3ccccc3c3c4c(c5c6ccccc6n2c5c31)C(=O)NC4` (stereo not drawn) [Compound K-252a, K-252a], the “inhibition of protein kinase C (PKC)” value in assay [3] was “strongly inhibits”.

With `COC(=O)C1(O)CC2OC1(C)n1c3ccc(CCCSC)cc3c3c4c(c5c6cc(CCCSC)ccc6n2c5c31)C(=O)NC4` (stereo not drawn) [Compound 95], the “ChAT Activity maximum efficacy %” value in assay [1] (maximum efficacy at 250 nM) is recorded as 239 (250 nM) % of Control; in assay [2] (maximum efficacy at 300 nM) it was 272 (300 nM) % of Control.

For `COC(=O)C1(O)CC2OC1(C)n1c3ccc(C=Cc4ccccn4)cc3c3c4c(c5c6cc(CSc7ccccn7)ccc6n2c5c31)C(=O)NC4` (stereo not drawn) [Compound 119], the “ChAT Activity maximum efficacy %” value in assay [2] (maximum efficacy at 30 nM) is recorded as 272 (30 nM) % of Control.

`COC(=O)C1(O)CC2OC1(C)n1c3ccc(C=Cc4ccccn4)cc3c3c4c(c5c6cc(Br)ccc6n2c5c31)C(=O)NC4` (stereo not drawn) [Compound 142]: in assay [2] (maximum efficacy at 300 nM), the “ChAT Activity maximum efficacy %” value was 223 (300 nM) % of Control.

The record behind these values is patent publication US6875865B1, “Selected derivatives of K-252a” (Cephalon, Inc., priority 1996, dated 2005).
